{
  "source": "patent US8106055B2",
  "about": "“Substituted amide compounds” (Gruenenthal GmbH, priority 2007, dated 2012)",
  "key": {"[1]": {"target": "T1, human bradykinin 1 receptor (B1R) (Homo sapiens, UniProt P46663)", "T1 construct": "expressed in transfected cells; host or cells: CHO K1 cells", "T1 sequence (P46663 1-353)": "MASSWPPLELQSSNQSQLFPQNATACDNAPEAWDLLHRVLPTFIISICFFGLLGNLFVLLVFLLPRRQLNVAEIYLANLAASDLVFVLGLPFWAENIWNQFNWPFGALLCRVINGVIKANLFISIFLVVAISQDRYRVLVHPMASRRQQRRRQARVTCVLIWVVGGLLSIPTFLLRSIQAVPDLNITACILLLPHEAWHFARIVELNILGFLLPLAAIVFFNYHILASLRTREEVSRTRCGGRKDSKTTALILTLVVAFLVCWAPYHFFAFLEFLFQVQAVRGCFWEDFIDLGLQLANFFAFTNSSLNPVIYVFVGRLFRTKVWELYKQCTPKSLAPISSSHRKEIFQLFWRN", "assay": "Functional investigation on the human bradykinin 1 receptor (B1R), Ca2+ FLIPR assay in CHO K1 hB1R cells", "format": "cell-based", "details": "B1R antagonism human; test substance 10 μM; Ca2+ FLIPR, CHO K1 hB1R cells", "method_in_brief": "(§1)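 Stably transfected CHO K1 cells loaded with Fluo-4; FLIPR Ca2+ fluorescence peak (ex 488/em 540 nm). Compound added first (agonism vs Lys-Des-Arg9-bradykinin ≥50 nM human, Des-Arg9-bradykinin 10 μM rat), then after 10-20 min agonist at EC80; antagonism as % inhibition, IC50 from concentration series, n=2-3, N≥2.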"}, "[2]": {"target": "T2, bradykinin 1 receptor (B1R) of the rat (Rattus norvegicus, UniProt P97583)", "T2 construct": "expressed in transfected cells; host or cells: CHO K1 cells", "T2 sequence (P97583 1-337)": "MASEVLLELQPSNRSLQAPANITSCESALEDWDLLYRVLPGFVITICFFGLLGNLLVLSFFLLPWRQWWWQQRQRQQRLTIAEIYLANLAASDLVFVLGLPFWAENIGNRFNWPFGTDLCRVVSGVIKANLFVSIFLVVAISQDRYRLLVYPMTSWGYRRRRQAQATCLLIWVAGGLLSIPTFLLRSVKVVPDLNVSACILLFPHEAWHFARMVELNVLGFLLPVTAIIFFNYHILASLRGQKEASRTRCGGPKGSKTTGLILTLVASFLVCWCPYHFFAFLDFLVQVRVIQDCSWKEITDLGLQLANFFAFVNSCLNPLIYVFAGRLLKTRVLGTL", "assay": "Functional investigation on the rat bradykinin 1 receptor (B1R), Ca2+ FLIPR assay in CHO K1 rB1R cells", "format": "cell-based", "details": "B1R antagonism rat; test substance 10 μM; Ca2+ FLIPR, CHO K1 rB1R cells", "method_in_brief": "as §1"}},
  "data": [
    {"smiles": "CN(C)C(c1ccc(Cl)cc1)C1CCC(CCNC(=O)COC2CCN(S(=O)(=O)c3cccc(C(F)(F)F)c3)C2)CC1", "note": "(stereo not drawn) [Example 431]", "values": [
      {"measurement": "B1R Ant. h [10 μM] % Inhibition", "setting": "[1]", "result": 25, "unit": "%"},
      {"measurement": "B1R Ant. r [10 μM] % Inhibition", "setting": "[2]", "result": 34, "unit": "%"}
    ]},
    {"smiles": "Cc1cc(C)c(S(=O)(=O)N2CCC(OCC(=O)NCC3CCC(C(c4ccc(F)cc4)N(C)C)CC3)C2)c(C)c1", "note": "(stereo not drawn) [Example 432]", "values": [
      {"measurement": "B1R Ant. h [10 μM] % Inhibition", "setting": "[1]", "result": 61, "unit": "%"},
      {"measurement": "B1R Ant. r [10 μM] % Inhibition", "setting": "[2]", "result": 45, "unit": "%"}
    ]},
    {"smiles": "CN(C)C(c1ccc(F)cc1)C1CCC(CNC(=O)COCCN2CCN(S(=O)(=O)c3ccccc3)CC2)CC1", "note": "(stereo not drawn) [Example 433]", "values": [
      {"measurement": "B1R Ant. h [10 μM] % Inhibition", "setting": "[1]", "result": "−4", "unit": "%"},
      {"measurement": "B1R Ant. r [10 μM] % Inhibition", "setting": "[2]", "result": "−12", "unit": "%"}
    ]},
    {"smiles": "CCN(CCOCC(=O)NCCC1CCC(C(c2ccc(Cl)cc2)N(C)C)CC1)S(=O)(=O)c1c(C)cc(OC)c(C)c1C", "note": "(stereo not drawn) [Example 434]", "values": [
      {"measurement": "B1R Ant. h [10 μM] % Inhibition", "setting": "[1]", "result": 47, "unit": "%"},
      {"measurement": "B1R Ant. r [10 μM] % Inhibition", "setting": "[2]", "result": 58, "unit": "%"}
    ]},
    {"smiles": "COc1cc(C)c(S(=O)(=O)N2CCCC(OCC(=O)NC3CCC(C(c4ccc(F)cc4)N(C)C)CC3)C2)c(C)c1C", "note": "(stereo not drawn) [Example 435]", "values": [
      {"measurement": "B1R Ant. h [10 μM] % Inhibition", "setting": "[1]", "result": 15, "unit": "%"},
      {"measurement": "B1R Ant. r [10 μM] % Inhibition", "setting": "[2]", "result": 14, "unit": "%"}
    ]},
    {"smiles": "COc1cc(C)c(S(=O)(=O)N(CCOCC(=O)NCCC2CCC(C(c3cccc(F)c3)N(C)C)CC2)Cc2ccccc2)c(C)c1C", "note": "(stereo not drawn) [Example 436]", "values": [
      {"measurement": "B1R Ant. h [10 μM] % Inhibition", "setting": "[1]", "result": 8, "unit": "%"},
      {"measurement": "B1R Ant. r [10 μM] % Inhibition", "setting": "[2]", "result": 10, "unit": "%"}
    ]},
    {"smiles": "CN(C)C(c1ccc(F)cc1)C1CCC(NC(=O)COCCN(C)S(=O)(=O)c2cccc(C(F)(F)F)c2)CC1", "note": "(stereo not drawn) [Example 438]", "values": [
      {"measurement": "B1R Ant. h [10 μM] % Inhibition", "setting": "[1]", "result": 9, "unit": "%"},
      {"measurement": "B1R Ant. r [10 μM] % Inhibition", "setting": "[2]", "result": "−10", "unit": "%"}
    ]},
    {"smiles": "CN(C)C(c1ccc(F)cc1)C1CCC(CNC(=O)COCCN(C)S(=O)(=O)c2ccc(OC(F)(F)F)cc2)CC1", "note": "(stereo not drawn) [Example 439]", "values": [
      {"measurement": "B1R Ant. h [10 μM] % Inhibition", "setting": "[1]", "result": 44, "unit": "%"},
      {"measurement": "B1R Ant. r [10 μM] % Inhibition", "setting": "[2]", "result": 16, "unit": "%"}
    ]},
    {"smiles": "CN(C)C(c1ccc(Cl)cc1)C1CCC(CCNC(=O)COC2CCN(S(=O)(=O)c3ccc(F)cc3)C2)CC1", "note": "(stereo not drawn) [Example 440]", "values": [
      {"measurement": "B1R Ant. h [10 μM] % Inhibition", "setting": "[1]", "result": 8, "unit": "%"},
      {"measurement": "B1R Ant. r [10 μM] % Inhibition", "setting": "[2]", "result": 31, "unit": "%"}
    ]},
    {"smiles": "COc1cc(C)c(S(=O)(=O)N2CCC(OCC(=O)NC3CCC(C(c4ccc(F)cc4)N(C)C)CC3)C2)c(C)c1", "note": "(stereo not drawn) [Example 441]", "values": [
      {"measurement": "B1R Ant. h [10 μM] % Inhibition", "setting": "[1]", "result": 94, "unit": "%"},
      {"measurement": "B1R Ant. r [10 μM] % Inhibition", "setting": "[2]", "result": 84, "unit": "%"}
    ]},
    {"smiles": "CN(C)C(c1ccc(Cl)cc1)C1CCC(CCNC(=O)COCCN(C)S(=O)(=O)c2c(Cl)cc(Cl)cc2Cl)CC1", "note": "(stereo not drawn) [Example 442]", "values": [
      {"measurement": "B1R Ant. h [10 μM] % Inhibition", "setting": "[1]", "result": 84, "unit": "%"},
      {"measurement": "B1R Ant. r [10 μM] % Inhibition", "setting": "[2]", "result": 11, "unit": "%"}
    ]},
    {"smiles": "CN(C)C(c1ccc(Cl)cc1)C1CCC(CCNC(=O)COC2CCN(S(=O)(=O)c3ccccc3)CC2)CC1", "note": "(stereo not drawn) [Example 443]", "values": [
      {"measurement": "B1R Ant. h [10 μM] % Inhibition", "setting": "[1]", "result": 21, "unit": "%"},
      {"measurement": "B1R Ant. r [10 μM] % Inhibition", "setting": "[2]", "result": "−1", "unit": "%"}
    ]},
    {"smiles": "CN(C)C(c1cccc(F)c1)C1CCC(CCNC(=O)COC2CCN(S(=O)(=O)c3ccccc3)CC2)CC1", "note": "(stereo not drawn) [Example 444]", "values": [
      {"measurement": "B1R Ant. h [10 μM] % Inhibition", "setting": "[1]", "result": "−20", "unit": "%"},
      {"measurement": "B1R Ant. r [10 μM] % Inhibition", "setting": "[2]", "result": "−5", "unit": "%"}
    ]},
    {"smiles": "CN(C)C(CCc1ccccc1)C1CCC(CNC(=O)COCCN(C)S(=O)(=O)c2ccc(Cl)cc2)CC1", "note": "(stereo not drawn) [Example 445]", "values": [
      {"measurement": "B1R Ant. h [10 μM] % Inhibition", "setting": "[1]", "result": 66, "unit": "%"},
      {"measurement": "B1R Ant. r [10 μM] % Inhibition", "setting": "[2]", "result": 46, "unit": "%"}
    ]},
    {"smiles": "CN(C)C(c1ccc(F)cc1)C1CCC(CCNC(=O)COCCN(C)S(=O)(=O)c2ccc(OC(F)(F)F)cc2)CC1", "note": "(stereo not drawn) [Example 446]", "values": [
      {"measurement": "B1R Ant. h [10 μM] % Inhibition", "setting": "[1]", "result": 19, "unit": "%"},
      {"measurement": "B1R Ant. r [10 μM] % Inhibition", "setting": "[2]", "result": 33, "unit": "%"}
    ]},
    {"smiles": "Cc1ccc(S(=O)(=O)N2CCC(OCC(=O)NCC3CCC(C(c4ccc(F)cc4)N(C)C)CC3)C2)cc1", "note": "(stereo not drawn) [Example 447]", "values": [
      {"measurement": "B1R Ant. h [10 μM] % Inhibition", "setting": "[1]", "result": 24, "unit": "%"},
      {"measurement": "B1R Ant. r [10 μM] % Inhibition", "setting": "[2]", "result": 3, "unit": "%"}
    ]},
    {"smiles": "Cc1ccc(S(=O)(=O)N(C)CCOCC(=O)NC2CCC(C(c3ccc(F)cc3)N(C)C)CC2)cc1", "note": "(stereo not drawn) [Example 448]", "values": [
      {"measurement": "B1R Ant. h [10 μM] % Inhibition", "setting": "[1]", "result": 0, "unit": "%"},
      {"measurement": "B1R Ant. r [10 μM] % Inhibition", "setting": "[2]", "result": 12, "unit": "%"}
    ]},
    {"smiles": "COc1cc(C)c(S(=O)(=O)N2CCCC(OCC(=O)NCC3CCC(C(c4ccc(Cl)cc4)N(C)C)CC3)C2)c(C)c1C", "note": "(stereo not drawn) [Example 449]", "values": [
      {"measurement": "B1R Ant. h [10 μM] % Inhibition", "setting": "[1]", "result": 25, "unit": "%"},
      {"measurement": "B1R Ant. r [10 μM] % Inhibition", "setting": "[2]", "result": "−7", "unit": "%"}
    ]}
  ]
}
